The source of these data is patent publication US12679878B2, “CRF2 receptor agonists and their use in therapy” (SANOFI, priority 2020, dated 2026).

Where two headings read alike, the source gives them in different places. Starred links: 1 amine or outer side, 2 acyl side, 3 side chain; linkers in the order of their positions; H or OH if unused. Non-standard residues stand in square brackets, D forms with d. Residues, ends and D or L forms follow the SMILES beside them. Groups on a side chain read outwards from the residue. No end group written: not given here. *: point of attachment. C18 diacid = O=C(O)CCCCCCCCCCCCCCCCC(=O)*; γGlu = O=C(O)[C@H](CCC(=O)[*:2])N[*:1]; AEEA = NCCOCCOCC(=O)O; Aib = CC(C)(N)C(=O)O Where only a bound is given, the exact number is not on record here.

Data set [1] deals with T1, human CRF2α receptor (Homo sapiens, UniProt Q13324).
T1 construct: expressed in transfected cells; host or cells: TeloHEAC
T1 sequence (Q13324 1-411): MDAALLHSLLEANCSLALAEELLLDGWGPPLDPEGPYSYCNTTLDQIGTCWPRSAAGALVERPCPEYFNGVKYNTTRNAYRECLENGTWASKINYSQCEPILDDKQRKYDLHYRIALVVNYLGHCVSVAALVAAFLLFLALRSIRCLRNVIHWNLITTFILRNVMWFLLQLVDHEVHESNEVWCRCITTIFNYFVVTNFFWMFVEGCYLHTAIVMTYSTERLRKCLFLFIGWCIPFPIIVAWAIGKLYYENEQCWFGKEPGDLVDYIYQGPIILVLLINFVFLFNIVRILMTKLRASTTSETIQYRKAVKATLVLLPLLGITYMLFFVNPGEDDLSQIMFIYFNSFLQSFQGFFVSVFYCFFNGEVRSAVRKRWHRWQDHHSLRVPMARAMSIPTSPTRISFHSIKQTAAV
Description: cAMP agonism at human CRF2 α receptor in TeloHEAC cells (Example 7). Format: cell-based. The conditions noted are these: cAMP HTRF, TeloHEAC cells stably expressing human CRF2 α. The method, boiled down:
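Percent activation was referenced to 1000 nM UCN2 (100%), and EC50 values taken as concentrations giving half of maximal response. The read-out was a homogeneous time-resolved fluorescence cAMP kit, fluorescence ratio 665/620 nm. Thawed cells (2000/well) saw compound for 30 min at RT in buffer with 2 mM IBMX and 0%/0.1% HSA.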
For orientation: In TR-FRET formats the signal depends on donor and acceptor labels being close together.

A short description of data set [2]: Physical stability, Thioflavin T fibrillation assay (Example 14). It counts as physicochemical. The conditions noted are these: 3 mg/ml, 37° C. shaking. The method, boiled down:
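Compounds at 3 mg/ml final in buffer were stressed at 37° C by repeated cycles of 10 s shaking at 960 rpm and 50 s rest. ThT fluorescence was read every 20 minutes in eight replicates, with fluorescence increase and lag time indicating fibrillation tendency.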

Data set [3] in a line: Physical stability, dynamic light scattering assay (Example 15). It counts as physicochemical. The conditions noted are these: Buffer D (20 mM phosphate, pH 7.4). As for the experimental part: The physical stability of the compounds was also assessed using a dynamic light scattering assay.
In the present study, the physical stability of test compounds was assessed by determining the apparent hydrodynamic radius (Rh), the scattering intensity (I) and mass contribution (M) after synthesis (0 weeks) and after storage for 4 weeks at 40° C.
For each solution of test compound, the hydrodynamic radius Rh and the diffusion constant D (related via the Stokes-Einstein equation) were determined as an average over triplicates. Both parameters were determined at different compound concentrations (e.g., Rh1 and D1: 1 mg/ml and Rh5 and D5: 5 mg/ml, Rh10 and D10: 10 mg/mL) in the same buffer system. The difference of these parameters between low and high peptide concentration is a surrogate for the DLS interaction parameter kD. […] In addition, the hydrodynamic radius Rh and the corresponding Scattering Intensity (%) were determined as an average over duplicates. The target concentration was 300 μM. Therefore, solutions from solid samples were prepared in a buffer system with a concentration of 300 μM compound based on the previously determined % purity.
DLS measurements were performed on a DynaPro Plate Reader I (Wyatt Technology, Santa Barbara, CA, US) with an 837 nm laser light source at a scattering angle of 150°. The data were collected and processed with Dynamics V 7.8.1.3 or 7.8.2.18 software provided by Wyatt Technology.
Hydrodynamic radii were determined with non-negatively constrained least squares (NNLS) methods using DYNALS algorithms with regularization fit. […] Samples were tempered over 1 hour at +25° C. and visually inspected before analysis.
Samples were mixed with the aid of a pipet tip. Measurements were performed in 5 replicates. […] The plate was centrifuged for 2 minutes at 600 rcf. After removing the sealing, the samples were measured at +25° C.

Data set [4] can be described thus: Solubility in buffer systems by UPLC-UV (Example 13). The conditions noted are these: pH 4.5, Solubility in Buffer B [mg/ml]. Format: physicochemical. The method, boiled down:
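The supernatant was diluted 1:10 and quantified by UPLC-UV peak area against a reference standard curve, correcting for sequence-based extinction coefficients.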

The nature of data set [5]: Chemical stability, purity loss by UPLC-UV after 28 days at 40° C. vs 5° C., pH 4.5 acetate buffer (Example 12). It counts as physicochemical. The following applies: 28 days 40° C. vs 5° C.; pH 4.5, 20 mM acetate buffer; 300 μM. The method, boiled down:
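300 μM compound (purity-corrected) in 20 mM acetate buffer, pH 4.5, stored 28 days at 5 and 40° C. Purity by UPLC-UV as compound peak area over total peak area. Value is the purity difference between 5° C. and 40° C. samples, relative to the 5° C. purity, in percent.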

For data set [6], the system named is rat CRF2R α receptor. Description: cAMP agonism at rat CRF2R α receptor in A7R5 rat aortic smooth muscle cells (Example 8). Format: cell-based. The following applies: cAMP HTRF, A7R5 rat aortic smooth muscle cell line, 0% HSA. The essentials:
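Thawed cryopreserved A7R5 cells in HBSS/20 mM HEPES (0 or 0.1% HSA) with 2 mM IBMX, 2000 cells/well, were exposed to compound for 30 min at room temperature. cAMP was read by HTRF (665/620 nm ratio) after 1 h with lysis reagents. Activity was normalised to 1000 nM urocortin 2 as 100%, and EC50 was taken as the concentration giving 50% of maximal activation.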

Data set [7] deals with T2, endogenous human CRF2 (NCI-H82 cells) (human, UniProt Q13324 20-411).
T2 sequence (looked up): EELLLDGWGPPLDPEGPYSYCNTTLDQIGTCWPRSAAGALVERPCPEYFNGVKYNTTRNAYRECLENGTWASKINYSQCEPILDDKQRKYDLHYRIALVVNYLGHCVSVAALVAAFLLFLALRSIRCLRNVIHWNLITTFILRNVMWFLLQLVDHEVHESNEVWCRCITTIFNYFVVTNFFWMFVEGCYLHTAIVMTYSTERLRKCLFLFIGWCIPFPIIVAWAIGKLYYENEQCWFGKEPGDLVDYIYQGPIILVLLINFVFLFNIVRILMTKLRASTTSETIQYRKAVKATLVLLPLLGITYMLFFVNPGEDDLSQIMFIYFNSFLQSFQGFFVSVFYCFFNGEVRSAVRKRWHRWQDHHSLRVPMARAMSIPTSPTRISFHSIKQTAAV
Description: cell-based or functional assay.

Data set [8] concerns the target rat CRF2R α receptor (rat, UniProt P47866 20-411). Kind of data set: cell-based or functional assay.
[9] abbreviates: Buffer A: 100 mM acetate buffer, pH 4.5.
Setting [10] is: Buffer B: 100 mM acetate buffer, pH 4.5, 2.7 mg/ml m-cresol.

With `CC[C@H](C)[C@H](N)C(=O)N[C@H](C(=O)N[C@@H](CC(C)C)C(=O)N[C@@H](CO)C(=O)N[C@@H](CC(C)C)C(=O)N[C@@H](CC(=O)O)C(=O)N[C@@H](C(=O)N1CCC[C@H]1C(=O)N[C@H](C(=O)N[C@@H](CCCCN)C(=O)N[C@@H](CC(C)C)C(=O)N[C@@H](CCCCNC(=O)COCCOCCNC(=O)COCCOCCNC(=O)CC[C@H](NC(=O)CCCCCCCCCCCCCCCCC(=O)O)C(=O)O)C(=O)N[C@@H](CCC(N)=O)C(=O)N[C@H](C(=O)N[C@@H](CC(C)C)C(=O)N[C@@H](CC(C)C)C(=O)N[C@@H](CCCCN)C(=O)N[C@@H](CCC(N)=O)C(=O)N[C@@H](C)C(=O)N[C@@H](CCCNC(=N)N)C(=O)N[C@@H](CCC(N)=O)C(=O)N[C@@H](CCCCN)C(=O)NC(C)(C)C(=O)N[C@@H](CCC(N)=O)C(=O)N[C@@H](CCCNC(=N)N)C(=O)N[C@@H](C)C(=O)N[C@@H](CCC(N)=O)C(=O)N[C@@H](C)C(=O)N[C@@H](CCC(=O)O)C(=O)N[C@@H](CCCCN)C(=O)N[C@@H](CC(N)=O)C(=O)N[C@@H](CCCCN)C(=O)N[C@@H](CCCNC(=N)N)C(=O)N[C@H](C(=O)N[C@@H](CC(C)C)C(=O)N[C@@H](CCC(=O)O)C(=O)N[C@@H](CCCNC(=N)N)C(=O)N[C@H](C(N)=O)C(C)C)[C@@H](C)CC)[C@@H](C)CC)[C@@H](C)CC)C(C)C)C(C)C` [compound 141] (H-IVLSLD[dV]PIKLK([AEEA-AEEA-γGlu-C18 diacid])QILLKQARQK[Aib]QRAQAEKNKRILERV-NH2), the EC50 (commonly the concentration needed to bring the measured effect to its halfway point) in data set [1] (0% HSA, read-out: EC50 [nM], 0% HSA) turned out to be 0.03 nM; in data set [1] (0.1% HSA, read-out: EC50 [nM], 0.1% HSA), 0.97 nM; in data set [6], 0.05 nM. Moreover, the “Increase in FI (fluorescence intensity)” value in data set [2] (setting [9]) and in data set [2] (setting [10]) was “No” in each case. In addition, the “Lag time” value in data set [2] (setting [9]) and in data set [2] (setting [10]) was above 45 h each time. Besides, the “Apparent Rh [nm] 0 weeks” value in data set [3] (0 weeks) is reported as 2.19 ± 0.18 nm. Further, in data set [3] (0 weeks), the “Scattering Intensity (I) [%] 0 weeks” value was 100 ± 1%. Also, the “Apparent Rh [nm] 4 weeks” value in data set [3] (4 weeks at 40° C.) was 2.34 ± 0.22 nm. The “Scattering Intensity (I) [%] 4 weeks” value in data set [3] (4 weeks at 40° C.) is given as 98 ± 2%. Besides, the solubility (commonly the dissolved amount per volume that the medium holds) at 1 h in data set [4] is above 8300 µg/mL. Moreover, the “Relative purity loss [%]” value in data set [5] was 2.90%.

B1: peptide of SEQ ID NO: 143 (peptide)
peptide: FTLSLDVPTKIK([AEEA-AEEA-γGlu-C18 diacid])QILLKQEKQKKQRQKAKTNKQILERV-NH2
modifications: N-terminus assumed
SMILES: CC[C@H](C)[C@H](NC(=O)[C@H](CCC(N)=O)NC(=O)[C@H](CCCCN)NC(=O)[C@H](CC(N)=O)NC(=O)[C@@H](NC(=O)[C@H](CCCCN)NC(=O)[C@H](C)NC(=O)[C@H](CCCCN)NC(=O)[C@H](CCC(N)=O)NC(=O)[C@H](CCCNC(=N)N)NC(=O)[C@H](CCC(N)=O)NC(=O)[C@H](CCCCN)NC(=O)[C@H](CCCCN)NC(=O)[C@H](CCC(N)=O)NC(=O)[C@H](CCCCN)NC(=O)[C@H](CCC(=O)O)NC(=O)[C@H](CCC(N)=O)NC(=O)[C@H](CCCCN)NC(=O)[C@H](CC(C)C)NC(=O)[C@H](CC(C)C)NC(=O)[C@@H](NC(=O)[C@H](CCC(N)=O)NC(=O)[C@H](CCCCNC(=O)COCCOCCNC(=O)COCCOCCNC(=O)CC[C@H](NC(=O)CCCCCCCCCCCCCCCCC(=O)O)C(=O)O)NC(=O)[C@@H](NC(=O)[C@H](CCCCN)NC(=O)[C@@H](NC(=O)[C@@H]1CCCN1C(=O)[C@@H](NC(=O)[C@H](CC(=O)O)NC(=O)[C@H](CC(C)C)NC(=O)[C@H](CO)NC(=O)[C@H](CC(C)C)NC(=O)[C@@H](NC(=O)[C@@H](N)Cc1ccccc1)[C@@H](C)O)C(C)C)[C@@H](C)O)[C@@H](C)CC)[C@@H](C)CC)[C@@H](C)O)C(=O)N[C@@H](CC(C)C)C(=O)N[C@@H](CCC(=O)O)C(=O)N[C@@H](CCCNC(=N)N)C(=O)N[C@H](C(N)=O)C(C)C
Take B1: the “EC50 [nM] (cAMP, NCI-H82 cells)” value in data set [7] is 93 nM.

B2: peptide of SEQ ID NO: 141 (peptide)
peptide: IVLSLD[dV]PIKLK([AEEA-AEEA-γGlu-C18 diacid])QILLKQARQK[Aib]QRAQAEKNKRILERV-NH2
modifications: N-terminus assumed
SMILES: CC[C@H](C)[C@H](N)C(=O)N[C@H](C(=O)N[C@@H](CC(C)C)C(=O)N[C@@H](CO)C(=O)N[C@@H](CC(C)C)C(=O)N[C@@H](CC(=O)O)C(=O)N[C@@H](C(=O)N1CCC[C@H]1C(=O)N[C@H](C(=O)N[C@@H](CCCCN)C(=O)N[C@@H](CC(C)C)C(=O)N[C@@H](CCCCNC(=O)COCCOCCNC(=O)COCCOCCNC(=O)CC[C@H](NC(=O)CCCCCCCCCCCCCCCCC(=O)O)C(=O)O)C(=O)N[C@@H](CCC(N)=O)C(=O)N[C@H](C(=O)N[C@@H](CC(C)C)C(=O)N[C@@H](CC(C)C)C(=O)N[C@@H](CCCCN)C(=O)N[C@@H](CCC(N)=O)C(=O)N[C@@H](C)C(=O)N[C@@H](CCCNC(=N)N)C(=O)N[C@@H](CCC(N)=O)C(=O)N[C@@H](CCCCN)C(=O)NC(C)(C)C(=O)N[C@@H](CCC(N)=O)C(=O)N[C@@H](CCCNC(=N)N)C(=O)N[C@@H](C)C(=O)N[C@@H](CCC(N)=O)C(=O)N[C@@H](C)C(=O)N[C@@H](CCC(=O)O)C(=O)N[C@@H](CCCCN)C(=O)N[C@@H](CC(N)=O)C(=O)N[C@@H](CCCCN)C(=O)N[C@@H](CCCNC(=N)N)C(=O)N[C@H](C(=O)N[C@@H](CC(C)C)C(=O)N[C@@H](CCC(=O)O)C(=O)N[C@@H](CCCNC(=N)N)C(=O)N[C@H](C(N)=O)C(C)C)[C@@H](C)CC)[C@@H](C)CC)[C@@H](C)CC)C(C)C)C(C)C
For B2, the “EC50 [nM], 0% HSA (cAMP, A7R5 cells)” value in data set [8] came to 0.05 nM. Besides, the “EC50 [nM] (cAMP, NCI-H82 cells)” value in data set [7] is 12 nM.
